Data from the NIST ThermoML archive (doi:10.1021/acs.jced.8b01135).
Several values for one entry are separate records, joined by “and”; a condition that tells them apart may be missing. Equal values may be shown once.

Tests used:
[1] = xn = mol fraction of the nth substance listed; settings: 102 kPa, Liquid, x2 = 0; for speed of sound: Frequency=3 MHz, Single path-length method; for mass density: Vibrating tube method; for viscosity: Concentric cylinders viscometry
[2] = Liquid; for speed of sound: Frequency=3 MHz, Single path-length method; for mass density: Vibrating tube method; for viscosity: Concentric cylinders viscometry

CCCCCCCCCCCC [dodecane] + CCCCCCCCCCCCC1CCCCC1
[1]
Settings	mass density [kg/m3]	speed of sound [m/s]	viscosity [mPa·s]
288.15 K	752.35	1317.2	–
293.15 K	748.72	1297.7	1.49
298.15 K	745.09	1278.2	–
303.15 K	741.46	1259	1.27
313.15 K	734.19	1221.1	1.08
323.15 K	726.88	1184	0.934
333.15 K	719.53	1147.8	0.813

CCCCCCCCCCCC [dodecane] + CCCC1CCCCC1
[1]
Settings	mass density [kg/m3]	speed of sound [m/s]	viscosity [mPa·s]
288.15 K	752.35	1317.2	–
293.15 K	748.72	1297.7	1.49
298.15 K	745.09	1278.2	–
303.15 K	741.46	1259	1.27
313.15 K	734.19	1221.1	1.08
323.15 K	726.88	1184	0.934
333.15 K	719.53	1147.8	0.813

CCCCCCCCCCCC [dodecane] + CCCCCC1CCCCC1
[1]
Settings	mass density [kg/m3]	speed of sound [m/s]	viscosity [mPa·s]
288.15 K	752.35	1317.2	–
293.15 K	748.72	1297.7	1.49
298.15 K	745.09	1278.2	–
303.15 K	741.46	1259	1.27
313.15 K	734.19	1221.1	1.08
323.15 K	726.88	1184	0.934
333.15 K	719.53	1147.8	0.813

CCCCCCCC1CCCCC1 [heptylcyclohexane]
[2], 102 kPa
Settings	mass density	speed of sound [m/s]	viscosity [mPa·s]
288.15 K	814.51 kg/m3	1393.6	–
293.15 K	811 kg/m3	1374.2	2.8
298.15 K	807.49 kg/m3	1355.1	–
303.15 K	803.99 kg/m3 and 803.98 kg/m3	1336.1	2.25
313.15 K	796.95 kg/m3	1298.8	1.85
323.15 K	789.91 kg/m3	1262.2	1.55
333.15 K	782.85 kg/m3	1226.7	1.31

CCCCCCCCCCCCC1CCCCC1 [dodecylcyclohexane]
[2], 102 kPa
Settings	mass density [kg/m3]	speed of sound [m/s]	viscosity
288.15 K	825.71	1441.5	–
293.15 K	822.36	1422.9	7.77 mPa·s and 7.76 mPa·s
298.15 K	819.02	1404.8	–
303.15 K	815.68	1386.3	5.81 mPa·s
313.15 K	809.03	1350.5	4.48 mPa·s
323.15 K	802.38	1315.4	3.55 mPa·s
333.15 K	795.75	1281.4	2.87 mPa·s and 2.88 mPa·s

CCCCCCCCCCCC [dodecane]
[2], 102 kPa
Settings	mass density	speed of sound [m/s]	viscosity [mPa·s]
288.15 K	752.35 kg/m3	1317.2	–
293.15 K	748.72 kg/m3	1297.7	1.49
298.15 K	745.09 kg/m3	1278.2	–
303.15 K	741.46 kg/m3	1259	1.27
313.15 K	734.18 kg/m3 and 734.19 kg/m3	1221.1	1.08
323.15 K	726.88 kg/m3	1184	0.934
333.15 K	719.53 kg/m3	1147.8	0.813

CCCCCCCCCCCC [dodecane] + CCCCCCC1CCCCC1
[1]
Settings	mass density [kg/m3]	speed of sound [m/s]	viscosity [mPa·s]
288.15 K	752.35	1317.2	–
293.15 K	748.72	1297.7	1.49
298.15 K	745.09	1278.2	–
303.15 K	741.46	1259	1.27
313.15 K	734.19	1221.1	1.08
323.15 K	726.88	1184	0.934
333.15 K	719.53	1147.8	0.813

CCCCCCCCCCCC [dodecane] + CCCCCCCCCCC1CCCCC1
[1]
Settings	mass density [kg/m3]	speed of sound [m/s]	viscosity [mPa·s]
288.15 K	752.35	1317.2	–
293.15 K	748.72	1297.7	1.49
298.15 K	745.09	1278.2	–
303.15 K	741.46	1259	1.27
313.15 K	734.19	1221.1	1.08
323.15 K	726.88	1184	0.934
333.15 K	719.53	1147.8	0.813

CCCCCCCCC1CCCCC1 [octylcyclohexane]
[2], 102 kPa
Settings	mass density	speed of sound [m/s]	viscosity [mPa·s]
288.15 K	817.58 kg/m3	1405.5	–
293.15 K	814.13 kg/m3	1386.4	3.52
298.15 K	810.67 kg/m3	1367.4	–
303.15 K	807.21 kg/m3 and 807.2 kg/m3	1348.6	2.79
313.15 K	800.28 kg/m3	1311.6	2.26
323.15 K	793.35 kg/m3	1275.5	1.87
333.15 K	786.41 kg/m3	1240.3	1.57

CCCCCCCCCCCC [dodecane] + CCCCCCCCC1CCCCC1
[1]
Settings	mass density [kg/m3]	speed of sound [m/s]	viscosity [mPa·s]
288.15 K	752.35	1317.2	–
293.15 K	748.72	1297.7	1.49
298.15 K	745.09	1278.2	–
303.15 K	741.46	1259	1.27
313.15 K	734.19	1221.1	1.08
323.15 K	726.88	1184	0.934
333.15 K	719.53	1147.8	0.813

CCCCCCCCCCCC [dodecane] + CCCCCCCC1CCCCC1
[1]
Settings	mass density [kg/m3]	speed of sound [m/s]	viscosity [mPa·s]
288.15 K	752.35	1317.2	–
293.15 K	748.72	1297.7	1.49
298.15 K	745.09	1278.2	–
303.15 K	741.46	1259	1.27
313.15 K	734.19	1221.1	1.08
323.15 K	726.88	1184	0.934
333.15 K	719.53	1147.8	0.813

CCCCCCC1CCCCC1 [hexylcyclohexane]
[2], 102 kPa
Settings	mass density [kg/m3]	speed of sound [m/s]	viscosity [mPa·s]
288.15 K	811.34	1380.4	–
293.15 K	807.76	1360.9	2.19
298.15 K	804.19	1341.4	–
303.15 K	800.61	1322.1	1.79
313.15 K	793.43	1284.2	1.52
323.15 K	786.25	1247.1	1.3
333.15 K	779.05	1211	1.12

CCCCCC1CCCCC1 [pentylcyclohexane]
[2], 102 kPa
Settings	mass density [kg/m3]	speed of sound [m/s]	viscosity [mPa·s]
288.15 K	807.78	1365.8	–
293.15 K	804.13	1346	1.69
298.15 K	800.48	1326.4	–
303.15 K	796.82	1306.7	1.43
313.15 K	789.49	1268.2	1.21
323.15 K	782.14	1230.5	1.05
333.15 K	774.75	1193.5	0.914

CCCC1CCCCC1 [1-cyclohexylpropane]
[2]
Settings	mass density, 102 kPa [kg/m3]	speed of sound, 88 kPa [m/s]	speed of sound, 102 kPa [m/s]	viscosity, 102 kPa [mPa·s]
288.15 K	797.42	–	1328.6	–
293.15 K	793.53	1307.7	1307.7	0.981
298.15 K	789.63	–	1287.1	–
303.15 K	785.72	1266.6	1266.6	0.856
313.15 K	777.88	1226.2	1226.2	0.75
323.15 K	770	1186.5	1186.5	0.668
333.15 K	762.09	1147.7	1147.7	0.594

CCCCCCCCCCC1CCCCC1 [decylcyclohexane]
[2], 102 kPa
Settings	mass density [kg/m3]	speed of sound [m/s]	viscosity [mPa·s]
288.15 K	821.93	1425.2	–
293.15 K	818.54	1406.4	5.34
298.15 K	815.16	1387.7	–
303.15 K	811.78	1369.1	4.09
313.15 K	805.02	1332.8	3.23
323.15 K	798.26	1297.2	2.6
333.15 K	791.49	1262.7	2.15
